Values quoted from earlier work in patent publication US20250268950A1, “PRENATAL SUPPLEMENT” (Arizona Board of Regents on Behalf of Arizona State …, priority 2021, published 2025).
Read-outs that look alike come from different tables or passages of the source.

Assays:
pregnant women = settings: for risk of anemia, RR: meta-analysis of 8 studies, supplementation; for decrease in anxiety symptoms / decrease in depression: RCT, 1 mg/day
[1] = for blood niacin lower than healthy non-pregnant controls: 20 mg/day, 563 US women
[2] = Cochrane, ≥1 g/day, 13 studies, 15,730 women
[3] = meta-analysis of 27 trials, 28,492 women
[4] = one or more maternal doses of 10 mg
[5] = meta-analysis of 7 studies, 5-10 mg, usually repeated, imminent very preterm birth
[6] = meta-analysis of seven RCTs, women with gestational diabetes

[Ca] [Calcium]
incidence of pregnancy-induced hypertension (pregnant women; 120 mg (18% in control group)): 8.9%
incidence of pregnancy-induced hypertension (pregnant women; 240 mg (18% in control group)): 7.5%
incidence of pregnancy-induced hypertension (pregnant women; 1000 mg (18% in control group)): 8%
incidence of pregnancy-induced hypertension (pregnant women; 2000 mg (18% in control group)): 4%
cases of HELLP (pregnant women; 1500-2000 mg/day, two trials, 12,901 women (vs. 6 un-supplemented)): 16
risk of preeclampsia, RR (pregnant women; Cochrane, low-dose <1 g/day, 10 trials, 2234 women): 0.38
maternal death or serious morbidity, RR (pregnant women; Cochrane, ≥1 g/day): 0.80
risk of high blood pressure, RR (pregnant women; [2]): 0.65
risk of preeclampsia, RR (pregnant women; [2]): 0.45
rate of proteinuric PIH (pregnant women; Hong Kong, 600 mg weeks 22-32, 1200 mg/day to birth (vs. 10.7% placebo)): 5.6%
rate of non-proteinuric PIH (pregnant women; Hong Kong, 600 mg weeks 22-32, 1200 mg/day to birth (vs. 24% placebo)): 15%
reducing risk of preeclampsia, PIH, and hypertension (pregnant women; Trinidad, 510 women, 1200 mg): much more effective than 600 mg of calcium plus aspirin
gestational hypertension, RR (pregnant women; [3]): 0.70
risk of preeclampsia, RR (pregnant women; [3]): 0.51
preterm birth, RR (infants; Cochrane, ≥1 g/day): 0.76
risk of ASD, OR (infants; retrospective study in China): 0.48

O=C(O)c1cccnc1 [Niacin]
blood niacin lower than healthy non-pregnant controls ([1]; first trimester): 29%
blood niacin lower than healthy non-pregnant controls ([1]; second trimester): 35%
blood niacin lower than healthy non-pregnant controls ([1]; third trimester): 38%

[Fe] [Iron]
subjects in whom iron deficiency anemia was reduced (pregnant women; 60 mg 3×/day (180 mg total), 12 participants with IDA): 75%
reduction of iron-deficiency anemia at term (pregnant women; meta-analysis, 6 trials, 1088 women): 67%
reduction of iron deficiency at term (pregnant women; meta-analysis, 7 trials, 1256 women): 57%
reduction of maternal anemia at term (pregnant women; meta-analysis, 14 trials, 2199 women, mostly 30-200 mg/day): 70%
megaloblastic anemia (pregnant women; only iron (11% unsupplemented)): 6%

Cobalamin [Vitamin B12]
levels lower at end of pregnancy vs healthy non-pregnant controls ([1]; 12 mcg/day, US): 38%
maternal and infant B12 levels ([1]; 50 mcg/day during pregnancy and early lactation, India): significant increases in maternal B12 levels in blood and breastmilk, and infant levels of B12
vitamin B12 levels during pregnancy ([1]; approximately 3× the RDA (diet 6 mcg + supplements 2.6 mcg), 26 women): enough to stabilize vitamin B12 levels during pregnancy
decrease in serum B12 by third trimester vs first ([1]; total consumption of 2× the RDA): 30%

Nc1nc2ncc(CNc3ccc(C(=O)N[C@@H](CCC(=O)O)C(=O)O)cc3)nc2c(=O)[nH]1 [folic acid]
prevalence of gestational diabetes (pregnant women; women with PCOS, folic acid only 1.5 mg): 54%
average blood folate level ([1]; 1000 mcg/day, each trimester, 563 US women (10 ng/ml in controls)): 25 to 26 ng/mL
risk of ASD in the child, RR (infants; meta-analysis of 6 prospective studies, maternal supplementation): 0.64
NTDs, OR (infants; meta-analysis, multi-vitamin supplement containing folic acid): 0.67

O=C(O)CCCC[C@@H]1SC[C@@H]2NC(=O)N[C@@H]21 [Biotin]
biotin levels ([1]; 30 mcg/day supplemental): sufficient to slightly increase levels of biotin above that of healthy controls
treatment of biotin deficiency ([1]; 300 mcg/day for two weeks): sufficient to treat the deficiency

CC/C=C\C/C=C\C/C=C\C/C=C\C/C=C\C/C=C\CCC(=O)O [DHA, Docosahexaenoic acid]
increase of RBC DHA ([1]; 300 mg/day (controls decreased 10%)): 7%
increase of RBC DHA ([1]; 600 g/day group (so in the source)): 21%

CC1=C(C/C=C(\C)CCC[C@H](C)CCC[C@H](C)CCCC(C)C)C(=O)c2ccccc2C1=O [phylloquinone]
infant plasma vitamin K as % of formula-fed infants ([1]; lactating mothers 5 mg/day, infants 1 mg intramuscularly at birth): 50%

C[N+](C)(C)CCO [Choline]
safety (pregnant women; 900 mg/day of choline (as phosphatidylcholine)): safe
Tolerable Upper Limit for Pregnant Women (Table 12): 3500 mg/day

[Se] [Selenium]
reduction of odds of preeclampsia or PIH (pregnant women; 60 i.g/day, 230 women in the UK): 65%
pregnancy-induced hypertension (pregnant women; 100 i.g during last 6-8 weeks, women at risk (vs. 23%)): 8%
gestational edema (pregnant women; 100 i.g during last 6-8 weeks, women at risk (vs. 33%)): 15%
postpartum depression (pregnant women; 100 i.g/day): treat postpartum depression
existing gestational edema cured (pregnant women; 100 i.g, 26 cases (1 out of 13 with placebo)): 88%
glucose, insulin, CRP, oxidative stress (pregnant women; 200 i.g/day for 6 weeks, 70 women with gestational diabetes): significant improvements in fasting glucose, serum insulin, C-reactive protein, and oxidative stress
rate of permanent hypothyroidism (pregnant women; 200 i.g/day, women at high risk (vs. 20%)): 12%
rate of postpartum thyroid deficiency (pregnant women; 200 i.g/day, women at high risk (vs. 49%)): 29%

CC1=C(/C=C/C(C)=C/C=C/C(C)=C/CO)C(C)(C)CCC1 [Vitamin A, retinol]
reduction of night blindness during pregnancy (pregnant women; Nepal, 7000 mcg/week): 67%
risk of anemia, RR (pregnant women): 0.81
vitamin A levels lower than healthy non-pregnant controls ([1]; 5000 IU/day (50% as beta carotene), first, second, third trimesters): 27%
Tolerable Upper Limit for Pregnant Women (Table 12): 3000 µg

CC1=C(/C=C/C(C)=C/C=C/C(C)=C/C=C/C=C(C)/C=C/C=C(C)/C=C/C2=C(C)CCCC2(C)C)C(C)(C)CCC1 [beta-carotene]
benefit on night blindness compared with vitamin A (pregnant women; Nepal): about half as much benefit
risk of anemia, RR (pregnant women): 0.81

calcium pantothenate
blood levels of pantothenic acid ([1]; 10 mg/day): slightly higher blood levels of pantothenic acid compared to non-pregnant controls
bound pantothenic acid as % of levels in controls ([1]; 60 mg from 4.5 months gestation, at 7.5 months): 59%
free pantothenic acid vs controls, fold higher ([1]; 60 mg from 4.5 months gestation, at 7.5 months and at term): 2
bound pantothenic acid as % of levels in controls ([1]; 60 mg from 4.5 months gestation, at term): 104%

CC(=O)[O-].CC(=O)[O-].[Zn+2] [zinc acetate]
benefit of zinc form (infants; two studies): not beneficial

Vitamin K
vitamin K level in the infant vs un-supplemented controls, times higher [1, 4]: 2
vitamin K level in the mother vs un-supplemented controls, times higher [1, 4]: 100
vitamin K level ([1]; pregnant women with previous bariatric surgery, 10 mg per week): normal or above-normal level of vitamin K
risk of childhood cancer (infants; meta-analysis of 6 studies, infantile supplementation): no risk of childhood cancer
brain bleeding, RR (non-significant) (infants; [5]): 0.76
severe brain bleeding, RR (infants; [5]): 0.58

[Cu] [Copper]
decrease in anxiety symptoms (pregnant women; second trimester): 45%
decrease in depression (pregnant women; second trimester): 75%
decrease in anxiety symptoms (pregnant women; third trimester): 80%
decrease in depression (pregnant women; third trimester): 90%
copper levels ([1]; 2 mg as part of a multi-vitamin/mineral supplement, France): no difference in copper levels between treatment and placebo groups
Tolerable Upper Limit for Pregnant Women (Table 18): 10000 µg

O=S(=O)([O-])[O-].[Mg+2] [magnesium sulfate, reference compound]
maternal complications (pregnant women; 4-6 g intravenously): no major complications
reduction of risk of cerebral palsy (infants; 4-6 g intravenously, mothers at high risk of preterm birth, meta-analysis of five studies): approximately 32%

magnesium gluconate
rate of pregnancy-induced hypertension (pregnant women; 184 mg/day): substantially reduced the rate of pregnancy-induced hypertension

omega-3 fatty acids
risk of preeclampsia, RR (pregnant women; meta-analysis of 14 supplementation studies): 0.82
preeclampsia, RR (possibly reduced) (pregnant women; meta-analysis of 70 RCTs): 0.84
reduction of depression, SMD (pregnant women; meta-analysis of eight studies, 638 women with perinatal depression, 1-6 g/day): 0.65
prevention of perinatal depression (pregnant women; meta-analysis of prophylactic supplementation studies): did not demonstrate a significant benefit
HOMA-IR, std. MD (pregnant women; [6]): −0.52
fasting plasma glucose, std. MD (pregnant women; [6]): −0.56
high-sensitivity CRP, std. MD (pregnant women; [6]): −1.14
neonatal care admissions, RR (possibly fewer) (infants; meta-analysis of 70 RCTs): 0.92
perinatal death, RR (possibly reduced) (infants; meta-analysis of 70 RCTs): 0.75
macrosomia, RR (possible) (infants; [6]): 0.48
newborns' hyperbilirubinemia, RR (possible) (infants; [6]): 0.46
prolonged gestation (>42 weeks), RR (infants; meta-analysis, 6 RCTs, 5141 participants): 1.61
early preterm birth (<34 weeks), RR (infants; meta-analysis, 9 RCTs, 5204 participants): 0.58
low birth weight, RR (infants; meta-analysis, 15 trials, 8449 participants): 0.90
preterm birth (<37 weeks), RR (infants; meta-analysis, 26 RCTs, 10,304 participants): 0.89
mean increase in length of gestation (infants; meta-analysis, 41 trials, 12,517 participants): 1.67 days

O=S(=O)([O-])[O-].[Zn+2] [zinc sulfate]
decrease of serum zinc, week 17 to week 31-36 ([1]; 20 mg, 138 Hispanic teenagers (14% non-supplemented)): 8%
decrease of plasma zinc from beginning to end of pregnancy ([1]; 25 mg/day, U.S. women with low initial plasma zinc (11% un-supplemented)): 7%
zinc levels ([1]; averaging 11 mg/day, U.S.): little effect on plasma levels but did increase hair and possibly saliva levels
infant birth weight and head circumference (infants; 25 mg/day, women with relatively low plasma zinc): greater infant birth weights and head circumferences

C[Se]CC[C@H](N)C(=O)O [selenome-thionine, selenomethionine]
preeclampsia or preterm birth vs placebo (pregnant women; 100 i.g/day, randomized trial of 169 women): no significant differences were seen for either preeclampsia or preterm birth

Nc1nc2ncc(CNc3ccc(C(=O)N[C@@H](CCC(=O)O)C(=O)O)cc3)nc2c(=O)[nH]1 [Folate]
serum folate levels at postpartum ([1]; 355 mcg plus iron supplement, Scotland): sufficient to maintain median serum folate levels at postpartum that were equivalent to that of healthy non-pregnant women

[Zn] [Zinc]
reduction in chance of infant impetigo (infants; 30 mg/day): 54%
preterm birth, RR (infants; meta-analysis of 16 randomized, controlled trials, mostly 20-30 mg): 0.86

Cc1ncc(C[n+]2csc(CCO)c2C)c(N)n1 [Thiamine]
effect on glucose tolerance and intra-uterine growth (pregnant women; supplementation in pregnant women): improves their glucose tolerance, and stimulates intra-uterine growth
thiamine levels lower than non-pregnant women ([1]; multi-vitamin containing 3 mg, 563 pregnant women): approximately 31%

Cc1cc2nc3c(=O)[nH]c(=O)nc-3n(C[C@H](O)[C@H](O)[C@H](O)CO)c2cc1C [Riboflavin]
cases of severe preeclampsia (pregnant women; 15 mg/day, Venezuela): significant decrease in the number of cases of severe preeclampsia

CC(O)C(=O)[O-].CC(O)C(=O)[O-].[Zn+2] (stereo not shown) [zinc lactate]
serum zinc ([1]; 30 mg): enough to slightly increase zinc levels
low birth weight, preterm birth, intrauterine growth retardation (infants; 30 mg/day): great improvements in the incidence of low birth weight, preterm birth, and intrauterine growth retardation
benefit (infants; doses of 5 and 10 mg): no benefit
